US11873298B2, “Compounds and uses thereof” (JANSSEN PHARMACEUTICA NV, priority 2017, dated 2024)

Assays:
SCD1 = biological target: T1, SCD1 (Homo sapiens, UniProt O00767); assay: Growth inhibition of humanized yeast strain expressing SCD1 as sole desaturase; format: cell-based
T1 construct: host or cells: S. cerevisiae ole1Δ strain (W303 pdr1Δ pdr3Δ background), plasmid pRS316 with TDH3 promoter and CYC1 terminator
T1 sequence (O00767 1-359): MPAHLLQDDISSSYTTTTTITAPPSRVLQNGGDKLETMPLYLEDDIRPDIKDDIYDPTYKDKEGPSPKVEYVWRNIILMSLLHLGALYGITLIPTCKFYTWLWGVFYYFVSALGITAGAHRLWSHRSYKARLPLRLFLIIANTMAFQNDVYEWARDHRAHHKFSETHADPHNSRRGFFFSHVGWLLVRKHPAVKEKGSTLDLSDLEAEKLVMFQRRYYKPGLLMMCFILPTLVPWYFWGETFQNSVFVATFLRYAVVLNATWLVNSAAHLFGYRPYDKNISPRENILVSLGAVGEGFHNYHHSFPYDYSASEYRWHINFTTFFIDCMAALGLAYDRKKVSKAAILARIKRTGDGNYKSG
Method: Strain oleΔ (yeast ole1 deletion mutant) was constructed by deleting OLE1 with NAT-MX6 in BY4741, amplifying the deletion cassette from the genomic DNA of the resulting strain with primers flanking the ORF by 1000 bp upstream and downstream, transforming the resulting deletion cassette into W303 pdr1Δ pdr3Δ, and plating transformants on YPD media containing G418 (200 μg/mL) and nourseothricin ([…]) with 0.01% TWEEN®-20 and 0.5 mM oleic and palmitoleic acids.
The coding sequence of yeast OLE1 was also cloned into this plasmid). These clones were then transformed into the ole1Δ strain and plated on CSM-Ura media (CSM lacking uracil) with 2% glucose (w/v) and independent colonies were isolated and amplified.
All compound profiling experiments were performed using the same basic protocol. Different genetic backgrounds (e.g., gene deletions) or conditions (e.g., addition of oleic and palmitoleic acid) were replaced as indicated below.
Yeast were cultured using standard techniques in complete synthetic media (CSM) and yeast nitrogen base supplemented with 2% (w/v) carbon source (glucose, raffinose, or galactose) to regulate the expression of the toxic disease protein. An initial starter culture was inoculated in 3 mL CSM-Glucose media and incubated overnight in a 30° C. shaker incubator (225 rpm). Saturated morning cultures were then diluted 1:20 in fresh CSM-Raffinose media and grown for 6 h to an OD600 (optical density) of ˜0.4-0.8 at 30° C. with shaking.
Compound administration was performed in two separate steps. First, 15 μL of CSM-Galactose (induces expression of toxic protein) was dispensed into clear 384 well assay plates using a MULTIDROP™ Combi reagent dispenser. […] The cultures described above were then diluted to a 2× concentration (0.03 and 0.08 for alpha-synuclein and ApoE, final ODsoo of 0.015 and 0.04) in CSM-Galactose. For wild-type and Ole1/SCD1/SCD5 plasmid-containing strains, the 2× cell density was 0.02. […] For 96-well assays (FIGS. 1A and 1B), compound dilutions in DMSO were generated in 96 well plates and 1 μL was manually pipetted into 96 well clear bottom assay plates.
For experiments using a plasmid-borne copy of Ole1, SCD1, or SCD5 (FIGS. 3B, 6, and 7), media lacking uracil (SX-Ura, where X is glucose, raffinose, or galactose), was used for all steps of the compound profiling protocol to ensure its maintenance throughout the assay.
After yeast delivery, assay plates were incubated under humidified conditions at 30° C. for 24 to 40 h. ApoE4 rescue experiments were stopped at 24 h, aSyn experiments at 40 h, Ole1 at 24 h, and SCD1/SCD5 at 40 h. The growth of yeast was monitored by reading the ODsoo of each well using a microplate reader (Perkin Elmer EnVision™).

SCD5 = biological target: T2, SCD5 (Homo sapiens, UniProt Q86SK9); assay: Growth inhibition of humanized yeast strain expressing SCD5 as sole desaturase; format: cell-based
T2 construct: host or cells: S. cerevisiae ole1Δ strain (W303 pdr1Δ pdr3Δ background), plasmid pRS316 with TDH3 promoter and CYC1 terminator
T2 sequence (Q86SK9 1-330): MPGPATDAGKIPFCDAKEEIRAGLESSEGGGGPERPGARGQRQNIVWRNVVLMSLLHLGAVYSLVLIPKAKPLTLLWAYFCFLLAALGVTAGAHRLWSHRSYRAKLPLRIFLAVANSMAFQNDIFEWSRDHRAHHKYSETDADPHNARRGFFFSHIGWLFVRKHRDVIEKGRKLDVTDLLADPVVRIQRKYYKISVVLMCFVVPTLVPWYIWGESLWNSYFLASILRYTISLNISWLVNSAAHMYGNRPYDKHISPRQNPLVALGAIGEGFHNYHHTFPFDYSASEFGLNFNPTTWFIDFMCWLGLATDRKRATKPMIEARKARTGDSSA
Method in brief: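 Measured by optical density at 600 nm, growth of desaturase-dependent yeast (OLE1 deleted; human SCD1, human SCD5 or yeast Ole1 supplied from plasmid) was scored after 24 h (Ole1) or 40 h (SCD1, SCD5) at 30° C. in galactose media lacking uracil with DMSO-delivered compound.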

[1] = growth inhibition of humanized yeast strain expressing human SCD1
[2] = growth inhibition of humanized yeast strain expressing human SCD5
[3] = humanized yeast strain expressing SCD1
[4] = humanized yeast strain expressing SCD5

Row | SMILES | IC50 (SCD1; humanized yeast strain, 40 h) [µM] | IC50 (SCD5; humanized yeast strain, 40 h) [µM] | other results
1 | CC(C)(C)OC(=O)N1CCC(c2nc(-c3ccn4cncc4c3)no2)CC1 [Compound 793] | > 45 | > 45 | –
2 | CC(C)(C)CC(=O)N1CCN(c2nc(-c3ccc4cnn(C5COC5)c4c3)no2)CC1 [Compound 619] | – | – | IC50 (SCD1; [1]): > 45 µM; IC50 (SCD5; [2]): 0.291 µM
3 | CC(C)C(=O)N1CCC(c2noc(-c3ccnc(-c4ccn(C)n4)c3)n2)CC1 [Compound 1184] | > 45 | > 45 | –
4 | COC(=O)N1CCC(c2noc(-c3ccc4ccn(C5COC5)c4c3)n2)CC1 [Compound 1036] | > 45 | 0.01 | –
5 | CCC(=O)N1CCC(c2noc(-c3ccc4cnn(C5COC5)c4c3)n2)CC1 [Compound 891] | > 45 | 0.01 | –
6 | c1cc2cnn(C3COC3)c2cc1-c1nc(C2CCCNCC2)no1 (stereo not shown) [Compound 863] | > 45 | > 45 | –
7 | CCOCC1CCN(c2nc(-c3ccc4cnn(C(C)C)c4c3)no2)CC1 [Compound 614] | – | – | IC50 (SCD1; [1]): > 45 µM; IC50 (SCD5; [2]): 13.9 µM
8 | CC(C)(C)OC(=O)N1CCC(c2noc(-c3cc(F)cc(N4CCOCC4)c3)n2)CC1 [Compound 1086] | > 45 | 0.019 | –
9 | CC(C)(C)OC(=O)N1CCN(c2noc(-c3ccnc(NC4COC4)c3)n2)CC1 [Compound 818] | > 45 | 0.56 | –
10 | CC(C)n1ncc2ccc(-c3noc(C4CCN(C(=O)CNC(=O)c5ccccc5)CC4(F)F)n3)cc21 (stereo not shown) [Compound 519] | – | – | IC50 (SCD1; [3]): > 45 µM; IC50 (SCD5; [4]): > 45 µM
11 | O=C(C1CC12CC2)N1CCN(c2nnc(-c3ccc4cnn(C5COC5)c4c3)o2)CC1 (stereo not shown) [Compound 991] | > 45 | > 45 | –
12 | COC(=O)N1CCC(c2noc(-c3ccnc(C4CCCO4)c3)n2)CC1 (stereo not shown) [Compound 973] | > 45 | > 45 | –
13 | CC(C)n1ncc2ccc(-c3noc(C4CCN(C(=O)C5CCCN5C)CC4)n3)cc21 (stereo not shown) [Compound 706] | – | – | IC50 (SCD1; [1]): > 45 µM; IC50 (SCD5; [2]): > 45 µM
14 | COC(=O)N1CCC(c2noc(-c3ccnc(CC4CC4)c3)n2)CC1 [Compound 1081] | > 45 | 2.43 | –
15 | CC(C)(C)CCC(=O)N1CC(c2nc(-c3ccc4cnn(C5COC5)c4c3)no2)C1 [Compound 749] | > 45 | 20.8 | –
16 | CC(C)(C)OC(=O)N1CCC(c2nc(-c3ccc4cnn(CC5COC5)c4c3)no2)CC1 [Compound 661] | – | – | IC50 (SCD1; [1]): > 45 µM; IC50 (SCD5; [2]): 1.54 µM
17 | CC(C)(C)OC(=O)N1CCC(c2nc(-c3ccc4cn(C5CCCOC5)nc4c3)no2)CC1 (stereo not shown) [Compound 719] | – | – | IC50 (SCD1; [1]): > 45 µM; IC50 (SCD5; [2]): > 45 µM
18 | CC(C)(C)OC(=O)N1CCN(c2noc(-c3cccc(C4CCCO4)c3)n2)CC1 (stereo not shown) [Compound 785] | 9.21 | 0.041 | –
19 | CC(C)n1ncc2ccc(-c3noc(C4CCN(C(=O)c5ncc(Cl)o5)CC4)n3)cc21 [Compound 758] | > 45 | 5.27 | –

Row | SMILES | IC50 (SCD1; humanized yeast strain, 40 h) [µM] | IC50 (SCD5; humanized yeast strain, 40 h) [µM] | other results
20 | CC(C)C(=O)N1CC[C@@H](c2noc(-c3ccc4cnn(C5COC5)c4c3)n2)C[C@@H]1C [Compound 1055] | > 45 | 0.00488 | –
21 | CC(C)(C)OC(=O)N1CC2(C1)CN(c1noc(-c3ccc4cnn(C5COC5)c4c3)n1)C2 [Compound 1074] | 5.43 | 1.96 | –
22 | CC(C)n1ncc2ccc(-c3noc(C4(F)CCN(C(=O)OC5(C)CC5)CC4)n3)cc21 [Compound 625] | – | – | IC50 (SCD1; [1]): > 45 µM; IC50 (SCD5; [2]): 0.122 µM
23 | CC(C)n1ncc2ccc(-c3noc(N4CCC5(CCO5)CC4)n3)cc21 [Compound 744] | – | – | IC50 (SCD1; [1]): > 45 µM; IC50 (SCD5; [2]): > 45 µM
24 | CC(C)(C)OC(=O)N1CCN(c2nc(-c3cccc(C4CCOC4)c3)no2)CC1 (stereo not shown) [Compound 829] | > 45 | 2.2 | –
25 | CC(C)n1cc2c(n1)CN(c1noc(C3CCN(C(=O)OC(C)(C)C)CC3)n1)CC2 [Compound 868] | > 45 | 0.967 | –
26 | COC(=O)N1CCC(c2noc(-c3ccc4cnn(C5COC(C)(C)C5)c4c3)n2)CC1 (stereo not shown) [Compound 1094] | > 45 | 17.4 | –
27 | COC1(C(=O)N2CCC(C)(c3nc(-c4ccc5cnn(C(C)C)c5c4)no3)CC2)CC1 [Compound 748] | > 45 | 2.14 | –
28 | CC(C)C(=O)N1CCC(c2noc(-c3ccnc(Cl)c3)n2)CC1 [Compound 1129] | > 45 | > 45 | –
29 | Cn1cc(-c2cc(-c3nc(C4CCN(C(=O)OC(C)(C)C)CC4)no3)ccn2)cn1 [Compound 1182] | 0.83 | 0.72 | –
30 | CC(C)(C)OC(=O)N1CCC(c2nc(-c3cccc(C4CCOC4)c3)no2)CC1 (stereo not shown) [Compound 658] | – | – | IC50 (SCD1; [1]): > 45 µM; IC50 (SCD5; [2]): 0.089 µM
31 | CC(C)(C)OC(=O)N1CCN(c2noc(-c3ccnc(N4CCOCC4)c3)n2)CC1 [Compound 943] | > 45 | > 45 | –
32 | O=C(CC1CC1)N1CCCN(c2noc(-c3ccc4cnn(C5COC5)c4c3)n2)CC1 [Compound 965] | > 45 | 0.01 | –
33 | COC(=O)N1CCC(c2noc(-c3cc(F)c4cnn(C5CCOC5)c4c3)n2)CC1 (stereo not shown) [Compound 1073] | 8.36 | 0.00252 | –
34 | CC1(OC(=O)N2CCC(c3nnc(-c4ccc5cnn(C6COC6)c5c4)o3)CC2)CCC1 [Compound 981] | > 45 | 0.045 | –
35 | CC(C)(C)OC(=O)N1CCC(c2nc(-c3ccc4cnn(C5CC(F)(F)C5)c4c3)no2)CC1 [Compound 742] | – | – | IC50 (SCD1; [1]): > 45 µM; IC50 (SCD5; [2]): 5.05 µM
36 | CC(C)(C)OC(=O)N1CCC(c2noc(-c3ccc4cnc(C5COC5)n4c3)n2)CC1 [Compound 909] | > 45 | 2.85 | –
37 | C=C(C)c1ccc(C(=O)N2CCC(c3nc(-c4ccc5cnn(C)c5c4)no3)CC2)nc1 [Compound 501] | – | – | IC50 (SCD1; [3]): 12.2 µM; IC50 (SCD5; [4]): 21.3 µM
38 | CC(C)n1ncc2ccc(-c3nc(C4CCN(C(=O)c5sccc5Cl)CC4)no3)cc21 [Compound 715] | – | – | IC50 (SCD1; [1]): > 45 µM; IC50 (SCD5; [2]): 0.048 µM
